Results reported in publication PMC9459403, “New inhibitors of cathepsin V impair tumor cell proliferation and elastin degradation and increase immune cell cytotoxicity” (Computational and Structural Biotechnology Journal, 2022).
“Also recorded” adds a separate entry of the source. Marks after values point to notes of the source that are not given here. Where a SMILES comes first, the peptide text is derived from it. [ ]: non-standard residue; d: D form. The star is where a group is joined. Sta = CC(C)C[C@H](N)[C@@H](O)CC(=O)O; Isovaleryl = CC(C)CC(=O)*

What was measured:
[1] = target: T1, human recombinant cathepsin L (Homo sapiens, UniProt P07711); test: Determination of Ki values and mode of inhibition; assay type: biochemical
T1 construct: made in house; host or cells: Escherichia coli
T1 sequence (P07711 114-333): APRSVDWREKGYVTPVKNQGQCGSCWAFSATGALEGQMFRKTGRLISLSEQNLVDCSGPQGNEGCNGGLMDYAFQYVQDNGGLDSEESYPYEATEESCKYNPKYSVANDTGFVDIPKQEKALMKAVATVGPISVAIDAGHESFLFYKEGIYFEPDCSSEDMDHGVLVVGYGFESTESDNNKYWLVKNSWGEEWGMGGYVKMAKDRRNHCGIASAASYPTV
Protocol: (§1) Human recombinant cathepsin V was expressed in Pichia Pastoris, and human recombinant cathepsin L was expressed in Escherichia coli, as reported, [51]. To determine the activities of cathepsins V and L, 100 mM acetate buffer (pH 5.5), containing 0.1 % PEG 8000 (Sigma-Aldrich, St. Louis, MO, USA), 5 mM cysteine, and 1.5 mM EDTA was used. Prior to the assay, the enzyme was activated in the assay buffer for 5 min at 37 °C.
(§2) Inhibition constants were calculated from reaction velocities measured at three substrate concentrations (0.5, 1, and 4 μM) in the presence of inhibitors at seven concentrations (0, 20, 40, 60, 80, 100, and 200 µM). The reaction was initiated by adding 90 μL of enzyme at final concentrations of 2.5 ng/mL and 0.02 nM for cathepsins V and L, respectively, to the wells of a black microtiter plate containing 5 μL of substrate and 5 μL of inhibitor. To evaluate cathepsin V and L activity, the substrate Z-Phe-Arg-AMC was used. The formation of the fluorescent degradation products was monitored as described above. All assay mixtures contained 5 % (v/v) DMSO. All measurements were performed in duplicates and repeated at least twice. The SigmaPlot® 12, Enzyme Kinetics Module™ 1.3 was used to calculate Ki values.

Cathepsin V [2] = target: T2, Cathepsin V (Homo sapiens, UniProt O60911); test: Determination of Ki values and mode of inhibition; assay type: biochemical; conditions: for fold lower inhibition constant for cathepsin V than cathepsin L: selectivity cathepsin V vs cathepsin L
T2 construct: made in house; host or cells: Pichia pastoris
T2 sequence (O60911 114-334): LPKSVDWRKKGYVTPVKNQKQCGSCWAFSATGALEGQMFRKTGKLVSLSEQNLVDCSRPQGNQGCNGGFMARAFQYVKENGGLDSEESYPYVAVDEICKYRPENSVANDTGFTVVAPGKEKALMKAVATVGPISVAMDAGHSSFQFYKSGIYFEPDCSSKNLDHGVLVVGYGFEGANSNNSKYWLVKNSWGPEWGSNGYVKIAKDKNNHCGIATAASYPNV
Protocol: as §1, §2

[3] = target: T1, human recombinant cathepsin L; test: Determination of relative inhibition, substrate Z-Phe-Arg-AMC; assay type: biochemical; conditions: inhibitor 50 μM; substrate 2 μM; mean ± SD (n = 2); read-out: Cathepsin L Ri (%) relative inhibition
Protocol: as §1
(§3) The effect of the inhibitors on cathepsin V and L activity was determined using the substrate Z-Phe-Arg-AMC (Bachem, Bubendorf, Switzerland). The reaction was initiated by adding 90 μL of the activated enzyme (final concentration 2.5 ng/mL and 0.02 nM for cathepsins V and L, respectively) to the wells of a black microtiter plate containing 5 μL of substrate (with a final concentration 2 μM) and 5 μL of inhibitor (with a final concentration of 50 μM). The formation of fluorescent degradation products during the reaction was monitored continuously at 460 nm ± 10 nm with excitation at 380 nm ± 20 nm at 37 °C on a Tecan Infinite M1000 (Mannedorf, Switzerland) spectrofluorometer. All assay mixtures contained 5 % (v/v) DMSO. To prevent false-positive inhibition due to the formation of compound aggregates, 0.01 % Triton X-100 was used. All measurements were performed in triplicate and repeated at least twice. Relative inhibition was calculated using the following equation: relative inhibition (%) = 100(1- vi/vo), where vi and vo denote the reaction velocities in the presence and absence of the inhibitor, respectively.

Cathepsin V [4] = target: T2, Cathepsin V; test: as above; assay type: biochemical; conditions: inhibitor 50 μM; substrate 2 μM; mean ± SD (n = 2); read-out: Cathepsin V Ri (%) relative inhibition
Protocol: as §1, §3

Cathepsin V [5] = target: T2, Cathepsin V; test: Determination of binding reversibility (dilution method); assay type: biochemical; conditions: inhibitor 100 μM, cathepsin V 500 ng/ml
Protocol: Binding reversibility was determined according to the dilution method, which measures the recovery of enzymatic activity after rapid dilution of the enzyme-inhibitor complex. Cathepsin V (500 ng/ml) was incubated in the assay buffer with the inhibitor (100 μM). Half of the reaction mixture was immediately diluted 100-fold with the assay buffer and added to the wells of a black microplate containing 5 μL of substrate (at a final concentration of 2 μM), and the activity was measured. The other half of the reaction mixture was incubated for 2 h before it was diluted 100-fold, and then the activity was measured. The assay was performed in triplicates and repeated at least two times.

[6] = tested on: U-937-derived macrophages; test: Intracellular elastin-FITC degradation; assay type: cell-based, human; conditions: 24 h; for decrease of elastin-FITC degradation: 10 μM, vs DMSO; for effect on degradation of elastin-FITC compared to control cells: CLIK-148 1 μM, LHVS 10 nM
Protocol: To evaluate the effect of the inhibitors on the elastolytic activity of cathepsin V, we assessed the intracellular degradation of elastin-FITC, a soluble bovine neck ligament elastin that is heavily labeled with FITC such that the fluorescence of the conjugate is quenched. Upon proteolysis, fluorescence is recovered and can be detected. U-937 cells, differentiated into macrophage-like cells, were seeded (at 1 × 10^5 cells/well) into 24-well plates with 500 μL of medium supplemented with 50 nM PMA. Inhibitors or DMSO (0.1 %) and elastin-FITC (10 μg/mL; AnaSpec, Fermont, CA, USA) were added to the medium and incubated for 24 h at 37 °C. Cells were detached and washed with PBS, and propidium iodide (BD Bioscience) was added to exclude dead cells. Therefore, green fluorescence arising from elastin-FITC degradation was monitored only for viable cells. The measurement was performed using a FACSCalibur instrument (BD Biosciences).

MCF7 cells = test: Proliferation assay (CFSE-labeled cells, flow cytometry); assay type: cell-based, human; conditions: 72 h; E-64d 10 μM, pepstatin 20 μM, LHVS 10 nM, CLIK-148 1 μM
Protocol: To assess the effect of cathepsin V inhibitors on cell proliferation, MCF7 cells were fluorescently labeled with carboxyfluorescein succinimidyl ester (CFSE; ImmunoChemistry Technologies, Bloomington, MN, USA) in PBS for 15 min at room temperature according to the manufacturer’s instructions. Cells were washed with PBS, resuspended in complete medium, seeded (at 4 × 10^4 cells/well) into 24-well plates, and allowed to adhere overnight. Cells were then treated with the following inhibitors: compound 7 (10 μM), E-64d (10 μM), CLIK-148 (1 μM), LHVS (10 nM), pepstatin (20 μM), their combinations, or DMSO (0.1 %) in 500 μL of medium for 72 h at 37 °C. To prepare cells for flow cytometry, cells were detached and transferred to round-bottomed polystyrene tubes and washed with PBS. Before measurement, 7-aminoactinomycin D (7-AAD; ImmunoChemistry Technologies, Bloomington, MN, USA) was added according to the manufacturer’s instructions to exclude dead cells. Therefore, the green fluorescence arising from CFSE was monitored only for viable cells. The measurement was performed using a FACSCalibur instrument (BD Biosciences, San Jose, CA, USA).

O=C(c1ccccc1OCc1ccccc1)C1OC1c1csc(-c2ccccc2)n1 (centres unmarked) [Compound 40, (2-(Benzyloxy)phenyl)(3-(2-phenylthiazol-4-yl)oxiran-2-yl)methanone]
mode of inhibition of cathepsin L [1]: competitive | Ki ([1]; mean ± SD (n = 2)): 454 ± 69.1 µM | mode of inhibition of cathepsin V (Cathepsin V [2]): uncompetitive | Cathepsin V Ki′ (Cathepsin V [2]; mean ± SD (n = 2)): 21.2 ± 2.0 µM | Cathepsin V Ki′ (µM) (Cathepsin V [2]; mean ± SD (n = 2)): 21.2 ± 2.0^f µM | fold lower inhibition constant for cathepsin V than cathepsin L (Cathepsin V [2]): 21 fold | inhibition at 50 µM [3]: 12.4 ± 0.7% | inhibition at 50 µM (Cathepsin V [4]): 27.6 ± 8.7% | binding reversibility: cathepsin V activity after 2 h incubation and 100-fold rapid dilution (Cathepsin V [5]): reversible; also recorded: restored

O=C(NCC1CCN(C(=O)Oc2ccccc2)CC1)NC(c1ccccc1)c1ccccc1 [Compound 42, Phenyl 4-((3-benzhydrylureido)methyl)piperidine-1-carboxylate]
mode of inhibition of cathepsin L [1]: noncompetitive | Cathepsin L Ki′ (µM) ([1]; mean ± SD (n = 2)): 319.2 ± 28.6^e µM | Ki ([1]; mean ± SD (n = 2)): 319 ± 28.6 µM | mode of inhibition of cathepsin V (Cathepsin V [2]): noncompetitive | Cathepsin V Ki′ (µM) (Cathepsin V [2]; mean ± SD (n = 2)): 155.8 ± 3.4^e µM | Ki (Cathepsin V [2]; mean ± SD (n = 2)): 156 ± 3.4 µM | fold lower inhibition constant for cathepsin V than cathepsin L (Cathepsin V [2]): more than 2 fold | inhibition at 50 µM [3]: 3.5 ± 3.1% | inhibition at 50 µM (Cathepsin V [4]): 21.6 ± 4.6% | binding reversibility: cathepsin V activity after 2 h incubation and 100-fold rapid dilution (Cathepsin V [5]): reversible; also recorded: restored

Cc1cc(OCc2ccccc2)c(C(=O)C2OC2c2cc3ccccc3o2)cc1C (centres unmarked) [Compound 27, (3-(Benzofuran-2-yl)oxiran-2-yl)(2-(benzyloxy)-4,5-dimethylphenyl)methanone]
decrease of elastin-FITC degradation [6]: 7.1 ± 2.7% | mode of inhibition of cathepsin L [1]: competitive | Ki ([1]; mean ± SD (n = 2)): 249 ± 29.8 µM | mode of inhibition of cathepsin V (Cathepsin V [2]): noncompetitive | Cathepsin V Ki′ (µM) (Cathepsin V [2]; mean ± SD (n = 2)): 68.3 ± 4.6 ^g µM | Ki (Cathepsin V [2]; mean ± SD (n = 2)): 68.3 ± 4.6 µM | fold lower inhibition constant for cathepsin V than cathepsin L (Cathepsin V [2]): more than 3 fold | inhibition at 50 µM [3]: 22.6 ± 5.1% | inhibition at 50 µM (Cathepsin V [4]): > 20% | binding reversibility: cathepsin V activity after 2 h incubation and 100-fold rapid dilution (Cathepsin V [5]): tight-binding or irreversible; also recorded: only partially restored

CCCNC(=O)[C@H]1O[C@@H]1C(=O)N[C@H](C(=O)N1CCC[C@@H]1C(=O)OC)[C@@H](C)CC [Compound 25, Methyl ((2S,3S)-3-(propylcarbamoyl)oxirane-2-carbonyl)-L-isoleucyl-D-prolinate]
decrease of elastin-FITC degradation [6]: 12.6 ± 4.8% | mode of inhibition of cathepsin L [1]: competitive | Ki ([1]; mean ± SD (n = 2)): 9.9 ± 0.9 µM | mode of inhibition of cathepsin V (Cathepsin V [2]): competitive | Ki (Cathepsin V [2]; mean ± SD (n = 2)): 8 ± 0.02 µM | inhibition at 50 µM [3]: 83.7 ± 1% | binding reversibility: cathepsin V activity after 2 h incubation and 100-fold rapid dilution (Cathepsin V [5]): irreversible; also recorded: completely blocked

CC(=O)c1cccc(NC(=O)c2cnc3sccn3c2=O)c1 [Compound 4, N-(3-acetylphenyl)-5-oxo-5H-thiazolo[3,2-a]pyrimidine-6-carboxamide]
mode of inhibition of cathepsin L [1]: competitive | Ki ([1]; mean ± SD (n = 2)): 84.3 ± 4 µM | mode of inhibition of cathepsin V (Cathepsin V [2]): competitive | Ki (Cathepsin V [2]; mean ± SD (n = 2)): 352 ± 78.6 µM | inhibition at 50 µM [3]: 23.5 ± 2.2% | inhibition at 50 µM (Cathepsin V [4]): > 20% | binding reversibility: cathepsin V activity after 2 h incubation and 100-fold rapid dilution (Cathepsin V [5]): reversible inhibition

O=C(Nc1nc2c(s1)CN(Cc1ccccc1)CC2)c1cccc2ccccc12 [Compound 5, N-(5-benzyl-4,5,6,7-tetrahydrothiazolo[5,4-c]pyridin-2-yl)-1-naphthamide]
mode of inhibition of cathepsin L [1]: uncompetitive | Cathepsin L Ki ([1]; mean ± SD (n = 2)): 11.2 ± 0.1 µM | Cathepsin L Ki′ ([1]; mean ± SD (n = 2)): 11.2 ± 0.1 µM | Cathepsin L Ki′ (µM) ([1]; mean ± SD (n = 2)): 11.2 ± 0.1^e µM | Cathepsin V Ki (µM) (Cathepsin V [2]; mean ± SD (n = 2)): no inhibition | inhibition at 50 µM [3]: 30.3 ± 5.5% | inhibition at 50 µM (Cathepsin V [4]): -5.8 ± 7% | binding reversibility: cathepsin V activity after 2 h incubation and 100-fold rapid dilution (Cathepsin V [5]): reversible inhibition; also recorded: restored

CN(C)C(=O)[C@H](Cc1ccccc1)NC(=O)[C@H]1O[C@@H]1C(=O)NCCc1ccccn1 [CLIK-148, reference compound]
effect on degradation of elastin-FITC compared to control cells [6]: did not decrease | effect on cell proliferation (relative CFSE fluorescence intensity vs DMSO) (MCF7 cells): no effects on cell proliferation

CC(C)C[C@H](NC(=O)N1CCOCC1)C(=O)N[C@H](/C=C/S(=O)(=O)c1ccccc1)CCc1ccccc1 [LHVS, morpholinurea-leucine-homophenylalanine-vinylsulfone-phenyl, reference compound]
effect on degradation of elastin-FITC compared to control cells [6]: did not decrease | effect on cell proliferation (relative CFSE fluorescence intensity vs DMSO) (MCF7 cells): no effects on cell proliferation

CC(C)CC(=O)N[C@H](C(=O)N[C@H](C(=O)N[C@@H](CC(C)C)[C@@H](O)CC(=O)N[C@@H](C)C(=O)N[C@@H](CC(C)C)[C@@H](O)CC(=O)O)C(C)C)C(C)C [pepstatin] (Isovaleryl-VV[Sta]A[Sta]-OH)
effect on cell proliferation (relative CFSE fluorescence intensity vs DMSO) (MCF7 cells): no effects on cell proliferation
